The nature of series [1]: wn = mass fraction of the nth substance listed. Conditions: 298.2 K, 100 kPa, Liquid, Vibrating tube method.
A short description of series [2]: refractive index (Na D-line) (dimensionless); wn = mass fraction of the nth substance listed. Conditions: 298.2 K, 100 kPa, Liquid, Standard Abbe refractometry.
The conditions of series [3]: 298.2 K; 101.33 kPa; Liquid; Vibrating tube method.
A short description of series [4]: refractive index (Na D-line) (dimensionless). The note with it: 298.2 K; 101.33 kPa; Liquid; Standard Abbe refractometry.

± gives the expanded uncertainty stated by the source.

As to `CCCCO` [butan-1-ol] + O, the mass density was found to be 844.74 ± 3.5 kg/m3 in series [1] (w2 = 0.2058) and 986.16 ± 3.8 kg/m3 in series [1] (w2 = 0.9265). Also, the refractive index in series [2] (w2 = 0.2058) was 1.3885 ± 0.0036; in series [2] (w2 = 0.9265), 1.3402 ± 0.0036.

For `CCCC(C)O` (stereo not given) [pentan-2-ol] + O, the mass density worked out at 827.45 ± 3.5 kg/m3 in series [1] (w2 = 0.1177) and 989.77 ± 3.8 kg/m3 in series [1] (w2 = 0.9477). For the same molecule, the refractive index in series [2] (w2 = 0.1177) turned out to be 1.3992 ± 0.0036; in series [2] (w2 = 0.9477), 1.3377 ± 0.0036.

For the molecule `CCCCO` [butan-1-ol], in series [3], the mass density turned out to be 805.81 ± 1.9 kg/m3. Further, the refractive index in series [4] came to 1.3973 ± 0.0032.

Regarding `CCC(C)O` (stereo not given) [butan-2-ol] + O, the figures for the mass density in series [1] (w2 = 0.3523) and in series [1] (w2 = 0.8131) were 874.34 ± 3.6 kg/m3 and 968.42 ± 3.7 kg/m3, respectively. For the same molecule, the refractive index in series [2] (w2 = 0.3523) amounted to 1.3812 ± 0.0036; in series [2] (w2 = 0.8131), 1.3513 ± 0.0036.

Take `CCC(C)O` (stereo not given) [butan-2-ol]: in series [3], the mass density stood at 802.49 ± 0.95 kg/m3. Besides, the refractive index in series [4] is given as 1.3952 ± 0.0016.

Consider `O` [water], for which the mass density in series [3] stood at 997.17 ± 1.9 kg/m3. For the same molecule, in series [4], the refractive index was 1.3325 ± 0.0032.

As for `CCCC(C)O` (stereo not given) [pentan-2-ol], the mass density in series [3] amounted to 805.37 ± 1.9 kg/m3. Besides, the refractive index in series [4] worked out at 1.4044 ± 0.0032.

For the origin of these results see the NIST ThermoML archive (doi:10.1016/j.jct.2017.03.019).
